Source: patent US9192617B2, “Pharmaceutical composition, methods for treating and uses thereof” (Boehringer Ingelheim International GmbH, priority 2012, dated 2015)
“Also recorded” adds a separate entry of the source.

Legend:
Assay type in all cases: in vivo, Female Wistar rats
[1] = Body weight in diet-induced obese (DIO) rats, chronic oral dosing; conditions: Day 29, FIG. 1
Experimental: Female Wistar rats (weight range 250-300 g upon arrival) are obtained from Charles River (Margate, Kent) and housed in pairs or threes at a temperature of 21±4° C. and 55±20% humidity. Animals are maintained on a reverse phase light-dark cycle (lights off for 8 h from 09.30-17.30 h) during which time the room is illuminated by red light. Animals have free access to powdered high fat diet (VRF1 plus 20% lard; Special Diet Services (SDS), Witham, UK), ground chocolate (Cadbury's Dairy Milk®), ground peanuts (Big D®, Trigon Snacks Ltd.) and tap water at all times unless specified otherwise. Animals are housed for 20-24 weeks for the induction of obesity. The work reported in this manuscript is performed in accordance with UK law as detailed in the Animals (Scientific Procedures) Act 1986.
Approximately two weeks before the start of the studies, animals are housed singly in polypropylene cages with wire grid floors (so food spillage could be determined). Each cage contains an appropriate amount of paper bedding for warmth, environmental enrichment and to provide an area for animals to get off the wire grid floor. […]
Statistical analysis is performed by a Statistician. Body weight and food and water intake data are assessed by analysis of covariance (ANCOVA) with treatment as a factor, and baseline data as the covariate. […]

[2] = Oral glucose (2 g/kg) tolerance test on Day 30 in DIO rats; conditions: for glucose tolerance (glucose AUC): OGTT 2 g/kg after 30 days of treatment, vs vehicle, FIG. 2a; for AUC of insulin during OGTT: OGTT Day 30, FIG. 2b
Experimental: (§1) In combination studies, sibutramine is dosed once daily with empagliflozin. Orlistat is dosed twice daily: once at the start of the dark phase (in combination with empagliflozin) and again four hours later. Blood samples are taken after approximately 2 and 4 weeks of dosing after a 4 h fast, with the exception of the combination studies with sibutramine and orlistat where samples are taken after an overnight fast. In the studies where empagliflozin is given with either orlistat or sibutramine, animals undergo an oral glucose (2 g/kg) tolerance test on Day 30 after an overnight fast. Blood samples are taken immediately before and 10, 20, 30, 60 and 120 minutes post glucose administration. At the conclusion of each experiment, carcasses are saved for body composition analysis.
(§2) Blood is collected in EDTA-coated collection tubes (Sarstedt) and immediately spun in a cooled centrifuge and the plasma stored frozen. Subsequently, plasma is assayed for content of one or more of the following: glucose, insulin, leptin, glycerol, and triacylglycerol (TAG) content. Blood (collected in an EDTA tube and frozen immediately) is assayed for HbA1c.
(§3) Commercially available enzyme-linked immunosorbent assays (ELISAs) and colorimetric kits are used to assay glucose (Thermo Electron Corp., PA, USA), insulin (Mercodia, Uppsala, Sweden), glycerol and true triglycerides (Sigma, Mo., USA), and leptin (Assay Designs, MI, USA). HbA1c is assayed by a direct enzymatic assay (Diazyme, CA, USA).
(§4) Plasma data are analysed by a general linear model with treatment as a factor. Where appropriate, data undergo a log transformation prior to analysis. Baseline plasma data and Day 1 body weight are included as covariates. HbA1c data are analysed by a robust regression model using M estimation (Huber weighting, using the default parameter c=1.345). Baseline HbA1c levels and Day 1 body weight are included as covariates. Since no differences are observed between the two and four week changes in plasma parameters, only the final plasma data for each study is detailed.

[3] = Plasma metabolic parameters on Day 30 in DIO rats; conditions: FIG. 3a; for plasma leptin: Day 30, overnight fast; for plasma glucose / plasma insulin: after 30 days of treatment, vs vehicle
Experimental: as §1, §2, §3, §4

[4] = Carcass body composition (FoodScan NIR) of DIO rats at study conclusion; conditions: FIG. 3b
Experimental: Carcass composition (body fat, protein and water) is determined using the FoodScan NIR (near infra-red) meat analyser (Foss, UK). Carcasses are milled at the temperature of liquid nitrogen and stored at −20° C. in sealed containers.
Carcass composition data are analysed by robust regression with treatment as factors. Day 1 body weight is included as a covariate.

Which “weight loss compared with vehicle-treated controls” value [1] does the source give for `CCCCCCCCCCC[C@@H](C[C@@H]1OC(=O)[C@H]1CCCCCC)OC(=O)[C@H](CC(C)C)NC=O` [orlistat] here?
The value was 2.4%.

What about the “glucose tolerance (glucose AUC)” value [2] of the same compound?
The value was “does not significantly affect glucose tolerance”.

And the “AUC of insulin during OGTT” value [2]?
Its value is “not significantly decreased”.

What about the plasma leptin [3] of the same compound?
Its plasma leptin is “reduce plasma leptin”.

What about the “carcass fat / body fat” value [4] of the same compound?
The value was “significantly and selectively reduce carcass fat”.

Which “weight loss compared with vehicle-treated controls” value [1] does the source give for `CC(C)CC(N(C)C)C1(c2ccc(Cl)cc2)CCC1` (stereo not drawn) [sibutramine] here?
Its value is 7.0%.

What about the “glucose tolerance (glucose AUC)” value [2] of the same compound?
The value was “significantly improve glucose tolerance”.

And the “AUC of insulin during OGTT” value [2]?
The value was “significant reductions in the glucose and insulin AUC”.

And the plasma leptin [3]?
Its plasma leptin is “reduce plasma leptin”.

And the plasma glucose [3]?
Its plasma glucose is “significantly reduces plasma glucose”.

And the plasma insulin [3]?
The plasma insulin was “significantly reduce plasma insulin; also recorded: reduces plasma insulin”.

And the “carcass fat / body fat” value [4]?
Its value is “significantly and selectively reduce carcass fat”.

Which “glucose tolerance (glucose AUC)” value [2] does the source give for `OC[C@H]1O[C@@H](c2ccc(Cl)c(Cc3ccc(O[C@H]4CCOC4)cc3)c2)[C@H](O)[C@@H](O)[C@@H]1O` [empagliflozin, 1-chloro-4-(β-D-glucopyranos-1-yl)-2-[4-((S)-tetrahydrofuran-3-yloxy)-benzyl]-benzene] here?
Its value is “improve glucose tolerance”.

And the “glucose tolerance (glucose AUC)” value ([2]; listed as Empagliflozin)?
The value was “significantly improve glucose tolerance”.

What about the “AUC of insulin during OGTT” value [2] of the same compound?
Its value is “reduced significantly; also recorded: significant reductions in the glucose and insulin AUC”.

And the plasma glucose [3]?
Its plasma glucose is “significantly reduces plasma glucose”.

What about the plasma insulin [3] of the same compound?
Its plasma insulin is “significantly reduce plasma insulin; also recorded: either a small effect to reduce plasma insulin or no impact”.

And the body composition [4]?
Its body composition is “does not significantly affect body composition”.
